The structures appear in SMILES notation.

In general, melting point refers to the temperature of the solid-liquid transition. Consider `CC(C)Cn1nc(-c2ccc(F)c(F)c2)cc(CN2CCNCC2)c1=O.Cl.Cl`, for which the melting point was in the range of 182.5 to 186 °C.

Consider `CC(C)Cn1nc(-c2ccc(F)c(F)c2)cc(CN2CCN(C)CC2)c1=O.Cl.Cl`, for which the melting point fell in the range of 242.5 to 243.4 °C.

On to `Cc1cc(-c2cc(CN3CCNCC3)c(=O)n(Cc3ccccc3)n2)ccc1F.Cl.Cl`, for which the melting point is 162.7 to 180.7 °C (dec.).

With `Cc1cc(-c2cc(CN3CCN(C)CC3)c(=O)n(Cc3ccccc3)n2)ccc1F.Cl.Cl`, the melting point is 240 to 242.5 °C (dec.).

Consider `Cc1cc(-c2cc(CN(C)C)c(=O)n(Cc3ccccc3)n2)ccc1F.Cl`, for which the melting point was in the range of 225.3 to 226 °C.

`Cc1cc(-c2cc(CN3CCNCC3)c(=O)n(CC=Cc3ccccc3)n2)ccc1F.Cl.Cl`: the melting point was 171.1 to 187.1 °C (dec.).

In turn, `Cc1cc(-c2cc(CN3CCN(C)CC3)c(=O)n(CC=Cc3ccccc3)n2)ccc1F.Cl.Cl` registered a melting point of 236.1 to 237.1 °C.

Turning to `Cc1cc(-c2cc(CN3CCNCC3)c(=O)n(CC=Cc3ccc(Cl)cc3)n2)ccc1F.Cl.Cl`, the melting point is 186.7 to 197 °C (dec.).

Take `CSc1ccc(-c2cc(CN3CCNCC3)c(=O)n(CC(C)C)n2)cc1.Cl.Cl`: the melting point was 248.5 to 253.7 °C (dec.).

Consider `CN1CCN(Cc2cc(-c3ccc([S+](C)[O-])cc3)nn(CC3CC3)c2=O)CC1.Cl.Cl` (stereo not drawn), for which the melting point was 80 °C (dec.).

On to `Cc1c(-c2ccc([S+](C)[O-])cc2)nn(CC(C)C)c(=O)c1N1CCN(C)CC1.Cl.Cl` (stereo not drawn), for which the melting point was 224.5 to 229.1 °C (dec.).

Take `CC(C)Cn1nc(-c2ccc([S+](C)[O-])cc2)cc(CN(C)C)c1=O.Cl` (stereo not drawn): the melting point is 204.2 to 206 °C.

As for `CN1CCN(Cc2cc(-c3ccc(S(C)(=O)=O)cc3)nn(CC3CC3)c2=O)CC1.Cl.Cl`, the melting point was in the range of 209 to 211.4 °C.

Compound `Cc1c(-c2ccc(S(C)(=O)=O)cc2)nn(CC2CC2)c(=O)c1N(C)C.Cl` had a melting point of 239.5 to 240.7 °C.

`CC(C)Cn1nc(-c2ccc(S(C)(=O)=O)cc2)cc(CN(C)C)c1=O.Cl`: the melting point lay in the range of 221.4 to 223.3 °C.

As to `Cc1ccc(-c2cc(CN3CCNCC3)c(=O)n(CC(C)C)n2)cc1F.Cl.Cl`, the melting point was 186.2 to 195 °C (dec.).

The compound `Cc1cc(-c2cc(CN)c(=O)n(Cc3ccccc3Cl)n2)ccc1F.Cl` had a melting point of 201.9 to 206.4 °C.

`COc1ccc(-c2cc(CN3CCNCC3)c(=O)n(CC(C)C)n2)cc1F.Cl.Cl`: the melting point was 163 to 177 °C (dec.).

Turning to `COc1ccc(-c2cc(CN3CCN(C)CC3)c(=O)n(CC(C)C)n2)cc1F.Cl.Cl`, the melting point was in the range of 236.9 to 237 °C.

On to `Cc1c(-c2ccccc2)nn(CC(C)C)c(=O)c1N1CCNCC1.Cl.Cl`, for which the melting point lay within 154.3 to 159.5 °C.

`Cc1c(-c2ccccc2)nn(CC(C)C)c(=O)c1N1CCN(C)CC1.Cl.Cl` registered a melting point of 243.8 to 244.3 °C.

In the case of `Cc1ccc(-c2cc(CN3CCN(C)CC3)c(=O)n(CC(C)C)n2)cc1F.Cl.Cl`, the melting point is 248.5 to 252 °C (dec.).

Take `CC(C)Cn1nc(-c2ccccc2)cc(CN(C)C)c1=O.Cl`: the melting point lay in the range of 221.7 to 222.3 °C.

Turning to `CC(C)Cn1nc(-c2ccc(C(F)(F)F)cc2)cc(CN2CCNCC2)c1=O.Cl.Cl`, the melting point was in the range of 210.8 to 212.5 °C.

`CC(C)Cn1nc(-c2ccc(C(F)(F)F)cc2)cc(CN(C)C)c1=O.Cl` displayed a melting point of 242.2 to 242.3 °C.

For the compound `CC(C)Cn1nc(-c2ccc(-c3ccccc3)cc2)cc(CN2CCN(C)CC2)c1=O.Cl.Cl`, the melting point fell in the range of 262.2 to 263.6 °C.

Take `Cc1c(-c2ccc(-c3ccccc3)cc2)nn(CC(C)C)c(=O)c1N(C)C.Cl`: the melting point is 243.9 to 244.1 °C.

Compound `COc1ccc(-c2cc(CN3CCN(C)CC3)c(=O)n(CC(C)C)n2)cc1Cl.Cl.Cl` registered a melting point of 235.8 to 236.7 °C.

The compound `COc1ccc(-c2cc(CN(C)C)c(=O)n(CC(C)C)n2)cc1Cl.Cl` showed a melting point of 213.6 to 214.3 °C.

`CNCc1cc(-c2ccc(OC)c(F)c2)nn(CC2CC2)c1=O` displayed a melting point of 169.1 to 170.7 °C.

The record behind these values is patent publication US6861428B2, “Water-soluble phenylpyridazine compounds and compositions containing the same” (Kowa Co., Ltd., priority 2001, dated 2005).
